Tests used:
Format in all cases: cell-based, human
[1] = tested on: pancreatic endoderm cells; test: NGN3/NKX2.2 double positive cells by immunostaining and InCell imaging after PE to EP differentiation
Experimental: After three days of EP differentiation, at EP day 4, media were aspirated followed by fixation of the cells at room temperature for 30 min with 4% paraformaldehyde (VWR, 97.131.000). Cells were washed with PBS and permeabilized with 0.5% Triton X-100 (Sigma, 9002-93-1) for 10 min, washed and blocked in 0.5% TNB-buffer (Perkin Elmer) for 30 min at room temperature. Primary antibodies, sheep anti-NGN3 (R&D systems #AF3444) and rabbit anti-NKX2.2 (Sigma #HPA003468) were diluted 1:1000 and 1:500, respectively, in 0.1% Triton X-100 in PBS and added to each well for overnight incubation at 4° C. Cells were washed three times with PBS. DAPI (4′,6-diamidino-2-phenylindole, Applichem, A4099.0010) and secondary antibodies, Alexa Fluor 488 donkey anti-goat and Alexa Fluor 594 donkey anti-rabbit (both Invitrogen) were diluted 1:1000 in 0.1% Triton X-100 in PBS and added to each well for 45 min. Cells were washed five times and left in 200 μL PBS for imaging. Imaging was performed using the InCell Analyzer 2000 (GE Healthcare). 4 fields per well with 10× objective were captured. The total cell number based in the DAPI counterstaining and the number of NGN3/NKX2.2 double positive cells was determined using InCell Developer Toolbox 1.8 (GE Healthcare). The fraction of NGN3/NKX2.2 double positive cells were quantified using the InCell developer toolbox software (GE Healthcare) and normalized to the combined protocol K&N (example 2) on each plate and the % effect was calculated (% effect NGN3/NKX2.2 double positive=((S−Sneg)/(|Spos−Sneg|))*100). Wherein S is % NGN3/NKX2.2 double positive cells for a given compound combination, Sneg and Spos are % NGN3/NKX2.2 double positive cells for the negative control and combined protocol K&N, respectively).
An EP cell population was prepared according to examples 1 and 2. However, in addition to the reagents used in example 2 the small molecules listed in table 3 were added for three days at concentrations specified in table 3 below in concentrations as shown. After three days of EP differentiation media were aspirated followed by fixation of the cells at room temperature for 30 min with 4% paraformaldehyde (VWR, 97.131.000). Cells were washed with PBS and permeabilized with 0.5% Triton X-100 (Sigma, 9002-93-1) for 10 min, washed and blocked in 0.5% TNB-buffer (Perkin Elmer) for 30 min at room temperature. Primary antibodies, sheep anti-NGN3 (R&D systems #AF3444) and rabbit anti-NKX2.2 (Sigma #HPA003468) were diluted 1:1000 and 1:500, respectively, in 0.1% Triton X-100 in PBS and added to each well for overnight incubation at 4° C. Cells were washed three times with PBS. DAPI (4′,6-diamidino-2-phenylindole, Applichem, A4099.0010) and secondary antibodies, Alexa Fluor 488 donkey anti-goat and Alexa Fluor 594 donkey anti-rabbit (both Invitrogen) were diluted 1:1000 in 0.1% Triton X-100 in PBS and added to each well for 45 min. Cells were washed five times and left in 200 μL PBS for imaging.
Imaging was performed using the InCell Analyzer 2000 (GE Healthcare). 4 fields per well with 10× objective were captured. The total cell number based in the DAPI counterstaining and the number of NGN3/NKX2,2 double positive cells was determined using InCell Developer Toolbox 1.8 (GE Healthcare). The fraction of NGN3/NKX2.2 double positive cells were quantified using the InCell developer toolbox software (GE Healthcare) and normalized to the combined protocol K&N on each plate and the % effect was calculated (% effect NGN3/NKX2.2 double positive=((S−Sneg)/(|Spos−Sneg|))*100). Wherein S is % NGN3/NKX2.2 double positive cells for a given compound combination, Sneg and Spos are % NGN3/NKX2.2 double positive cells for the negative control and combined protocol K&N, respectively).

[2] = tested on: SA121 (hES) derived pancreatic endoderm cells; test: NGN3/NKX2.2 double positive cells by imaging, small molecule combinations, SA121 (hES); conditions: Method of example 2 + 2.5 μM DAPT
Experimental: (§1) An EP cell population was prepared according to example 2. However, in addition to the reagents used in example 2, certain small molecules listed in table 3 were added either alone or in combination during the three days of EP differentiation. After three days of EP differentiation media were aspirated followed by fixation of the cells at room temperature for 30 min with 4% paraformaldehyde (VWR, 97.131.000). Cells were washed with PBS and permeabilized with 0.5% Triton X-100 (Sigma, 9002-93-1) for 10 min, washed and blocked in 0.5% TNB-buffer (Perkin Elmer) for 30 min at room temperature. […] Cells were washed three times with PBS. DAPI (4',6-diamidino-2-phenylindole, Applichem, […]10) and secondary antibodies, Alexa Fluor 488 donkey anti-goat and Alexa Fluor 594 donkey anti-rabbit (both Invitrogen) were diluted 1:1000 in 0.1% Triton X-100 in PBS and added to each well for 45 min. Cells were washed five times and left in 200 μL PBS for imaging. Imaging was performed using the InCell Analyzer 2000 (GE Healthcare). 4 fields per well with 10× objective were captured.

[3] = tested on: CHiPS2 (iPS) derived pancreatic endoderm cells; test: NGN3/NKX2.2 double positive cells by imaging, small molecule combinations, CHiPS2 (iPS); conditions: Method of example 2 + 2.5 μM DAPT
Experimental: as §1

[4] = 10 μM added to method of example 2 for three days
[5] = 0.5 μM added to method of example 2 for three days
[6] = 5 μM added to method of example 2 for three days
[7] = 0.1 μM added to method of example 2 for three days
[8] = 1 μM added to method of example 2 for three days

| SMILES | % effect NGN3/NKX2.2 double positive cells [1, 4] [%] | % effect NGN3/NKX2.2 double positive cells [1, 6] [%] | % effect NGN3/NKX2.2 double positive cells [1, 8] [%] | also measured |
| --- | --- | --- | --- | --- |
| Cn1cnc2cc3c(Nc4cccc(Br)c4)ncnc3cc21 [BPIQ-I] | 350 |  |  |  |
| C[C@H](NC(=O)Cc1cc(F)cc(F)c1)C(=O)N[C@@H]1C(=O)N(C)c2ccccc2-c2ccccc21 [CompE] |  |  |  | % effect NGN3/NKX2.2 double positive cells ([1]; 5 nM added to method of example 2 for three days): 250%; % effect NGN3/NKX2.2 double positive cells ([1]; 50 nM added to method of example 2 for three days): 325%; % effect NGN3/NKX2.2 double positive cells ([1]; 500 nM added to method of example 2 for three days): 395% |
| C[C@H](NC(=O)Cc1cc(F)cc(F)c1)C(=O)N[C@H](C(=O)OC(C)(C)C)c1ccccc1 [DAPT] |  |  |  | % effect NGN3/NKX2.2 double positive cells [1, 5]: 150%; % effect NGN3/NKX2.2 double positive cells ([1]; 2.5 μM added to method of example 2 for three days): 350%; % effect NGN3/NKX2.2 double positive cells ([1]; 25 μM added to method of example 2 for three days): 300%; % effect NGN3/NKX2.2 double positive cells, SA121 (hES) [2]: 165%; % effect NGN3/NKX2.2 double positive cells, CHiPS2 (iPS) [3]: 167% |
| CN(C)c1ccc(/C=C2/C(=O)Nc3ccccc32)cc1 [DMBI, (Z)-3-[4-(Dimethylamino)benzylidenyl]indolin-2-one] | 231 | 167 |  |  |
| O=C(c1ccccc1)c1ccc(N2CCOCC2)cc1O [DNA-PK inhibitor V] |  | 370 |  |  |
| COc1cc2ncnc(Nc3ccc(F)c(Cl)c3)c2cc1OCCCN1CCOCC1 [Gefitinib] |  | 325 | 311 | % effect NGN3/NKX2.2 double positive cells [1, 7]: 222% |
| CCOc1nc(NC(=O)Cc2cc(OC)ccc2OC)cc(N)c1C#N [JNK VIII] | 308 | 315 | 204 | % effect NGN3/NKX2.2 double positive cells [1, 7]: 160%; % effect NGN3/NKX2.2 double positive cells [1, 5]: 156% |
| CC(C)CC(NC(=O)C(Cc1ccccc1)CC(O)C(Cc1ccccc1)NC(=O)OC(C)(C)C)C(=O)NC(Cc1ccccc1)C(N)=O (stereo not shown) [L6] |  |  |  | % effect NGN3/NKX2.2 double positive cells ([1]; 50 μM added to method of example 2 for three days): 150% |
| COc1cccc(-c2cc(=O)c3ccccc3o2)c1N [PD98059] |  |  | 165 |  |
| CCC(=O)Nc1ccc2ncnc(Nc3cccc(Br)c3)c2c1 [PD174265] | 274 | 374 | 240 |  |
| c1ccc2c(-c3ccncc3)c[nH]c2c1 [Rockout] | 199 | 208 |  |  |
| Cn1cc(/C=C2\C(=O)Nc3ccc(S(N)(=O)=O)cc32)c2ccccc21 [Syk inhibitor] |  |  | 157 |  |
| Cc1cccc(-c2nc(C(C)(C)C)[nH]c2-c2ccc3c(c2)OCO3)n1.Cl [TGFbRI inhibitor III] |  | 182 |  |  |
| CSc1nc(-c2ccc(F)cc2)c(-c2ccnc(NC(C)c3ccccc3)c2)[nH]1 (stereo not shown) [p38 inhibitor III] | 153 | 191 |  |  |
